Measurements: patent US20220233441A1, “MIC[…] SYSTEMS FOR CANNABIS EXTRACTS AND […]” (Quicksilver Scientific, Inc., priority 2019, published 2022)
Entries after “also recorded” stand apart in the source; their conditions may differ.

Experiment: Formation of shelf-stable and visually clear MOIW microemulsions with different constituents
Assay type: physicochemical
From the text: A shelf-stable microemulsion may be determined in one of two ways. […] Either type of dissociation means that the microemulsion is not shelf-stable.
A visually clear microemulsion has an average particle diameter of 200 nm and less and lacks precipitated solid crystals visible to the naked eye.

| Molecule | usefulness of the constituent for forming shelf-stable and visually clear MOIW microemulsions |
| --- | --- |
| OC[C@@H](O)[C@@H](O)[C@H](O)[C@@H](O)CO [sorbitol] | not useful |
| OC[C@@H](O)[C@@H](O)CO [erythritol] | not useful |
| OC[C@@H](O)[C@@H](O)[C@H](O)[C@H](O)CO [mannitol] | not useful |
| polysorbate 20 | did not form shelf-stable and visually clear microemulsions; also recorded: not useful |
| OC[C@@H](O)[C@H](O)[C@@H](O)CO [xylitol] | not useful |
